The subject of test [1] is MGC-803. Put plainly: Antiproliferative activity against human MGC803 cells at 2 uM after 72 hrs by CCK-8 assay relative to control. The format is functional. The note with it: MGC-803, 72 h.
In test [2] the test system is MGC-803. Nature of the test: Antiproliferative activity against human MGC803 cells at 8 uM after 72 hrs by CCK-8 assay relative to control. The format is functional. The conditions noted are these: MGC-803, 72 h.
The subject of test [3] is A-375. Nature of the test: Antiproliferative activity against human A375 cells at 2 uM after 72 hrs by CCK-8 assay relative to control. The conditions noted are these: A-375, 72 h. The format is functional.
The subject of test [4] is A-375. Put plainly: Antiproliferative activity against human A375 cells at 8 uM after 72 hrs by CCK-8 assay relative to control. The note with it: A-375, 72 h. The test is classed as functional.
Test [5] concerns HeLa. Nature of the test: Antiproliferative activity against human HeLa cells at 2 uM after 72 hrs by CCK-8 assay relative to control. The test is classed as functional.
Test [6] has as its system HeLa. Put plainly: Antiproliferative activity against human HeLa cells at 8 uM after 72 hrs by CCK-8 assay relative to control. The format is functional.
Test [7] has as its system A-375. Put plainly: Antiproliferative activity against human A375 cells after 72 hrs by CCK-8 assay. The format is functional, cell-based. The note with it: A-375, 72 h.
In test [8] the test system is MGC-803. Put plainly: Antiproliferative activity against human MGC803 cells after 72 hrs by CCK-8 assay. The format is functional, cell-based. The conditions noted are these: MGC-803, 72 h.
In test [9] the test system is HeLa. Nature of the test: Antiproliferative activity against human HeLa cells after 72 hrs by CCK-8 assay. The test is classed as functional, cell-based.
For test [10], the system named is SMMC-7721. Put plainly: Antiproliferative activity against human SMMC7721 cells after 72 hrs by CCK-8 assay. The format is functional, cell-based. The conditions noted are these: SMMC-7721, 72 h.
A further test has as its system NCI-H1299. Put plainly: Antiproliferative activity against human NCI-H1299 cells after 72 hrs by CCK-8 assay. The format is functional, cell-based. The note with it: NCI-H1299, 72 h.
Another test concerns HCT-116. Nature of the test: Antiproliferative activity against human HCT116 cells after 72 hrs by CCK-8 assay. The test is classed as functional, cell-based. The note with it: HCT-116, 72 h.
The subject of test [11] is SMMC-7721. Nature of the test: Cell cycle arrest in human SMMC7721 cells assessed as accumulation of cells at G0/G1 phase at 0.125 umol/L after 72 hrs by propidium iodide staining-based flow cytometric analysis (reference value: 80.65%). The test is classed as functional.

Some results are limits rather than exact numbers.

Regarding `Nc1ccccc1NC(=O)c1ccc(CSC(=S)N2CCc3ccccc32)cc1`, the inhibition at 2 µM with MGC-803 [1] is 44%; in the test with A-375 [3], 25.7%; with HeLa [5], 38%. For the same compound, the inhibition at 8 µM is 87% with MGC-803 [2], 85.4% in the test on A-375 [4] and 67% in the test with HeLa [6]. Besides, the half-inhibitory concentration (IC50) in the test on A-375 [7] was determined as 4050 nM; with MGC-803 [8], 2300 nM; in the test with HeLa [9], 3450 nM; in the test on SMMC-7721 [10], 3040 nM; in the test with NCI-H1299, 2900 nM; with HCT-116, 2700 nM.

Regarding `COC(=O)c1ccc2c(c1)CCN2C(=S)SCc1ccc(C(=O)Nc2ccccc2N)cc1`, the inhibition at 2 µM in the test on MGC-803 [1] is 37.8%; in the test on A-375 [3], 37.5%; in the test on HeLa [5], 45.3%. Also, the inhibition at 8 µM with MGC-803 [2] worked out at 73.1%; in the test with A-375 [4], 79.2%; with HeLa [6] it was 60.1%. The IC50 was 5880 nM in the test on A-375 [7]; 3280 nM in the test with MGC-803 [8]; 3580 nM in the test on HeLa [9]; greater than 32000 nM with SMMC-7721 [10]; 2020 nM in the test with NCI-H1299; 13200 nM in the test on HCT-116.

As for `CC1CCCCN1C(=S)SCc1ccc(C(=O)Nc2ccccc2N)cc1` (stereo not drawn), the inhibition at 2 µM with MGC-803 [1] came to 64.4%; in the test on A-375 [3], 42.5%; in the test with HeLa [5], 45.5%. Further, the results for the inhibition at 8 µM in the test with MGC-803 [2], with A-375 [4] and in the test on HeLa [6] were 86.9%, 85.2% and 76.3%, respectively. Moreover, the half-maximal inhibitory concentration (IC50) with A-375 [7] was 2610 nM; in the test on MGC-803 [8], 1610 nM; in the test on HeLa [9], 2300 nM; with SMMC-7721 [10] it was 2950 nM; in the test with NCI-H1299 it was 1300 nM; with HCT-116 it was 1320 nM. The Activity entry in the test on SMMC-7721 [11] is “Dose-dependent effect”.

As for `Nc1ccccc1NC(=O)c1ccc(CSC(=S)N2CCc3cc(Cl)ccc32)cc1`, the inhibition at 2 µM with MGC-803 [1] was determined as 57.7%; with A-375 [3] it was 31.9%; in the test on HeLa [5] it was 40.1%. The results for the inhibition at 8 µM with MGC-803 [2], in the test on A-375 [4] and in the test with HeLa [6] were 82.2%, 82.3% and 65.1%, respectively. In addition, the IC50 in the test on A-375 [7] was 5280 nM; in the test with MGC-803 [8], 1890 nM; in the test with SMMC-7721 [10], 1880 nM; with NCI-H1299, 3280 nM; in the test with HCT-116 it was 3210 nM.

(Values after ChEMBL document CHEMBL4251578, “Design, synthesis and biological evaluation of novel 2-aminobenzamides containing dithiocarbamate moiety as histone deacetylase inhibitors and potent antitumor agents” (Eur J Med Chem, 2018).)
